In brackets after ≈: the same amount, converted by molar mass. Residues, ends and D or L forms follow the SMILES beside them.
Tests used:
[1] = test system: Klebsiella pneumoniae CMCC46117; format: cell-based; details: CMCC46117, 2 h
Experimental: (§1) The MIC assays were performed as previously described ([43]). Briefly, peptides were plated in a 2-fold dilution series (50 μL/well) of Mueller-Hinton broth (MHB) in Costar 96-well cell culture plates (Corning, NY, USA). Three repeats were set for each concentration. E. coli ATCC 25922, A. hydrophila ATCC 7966, P. aeruginosa PAO1, P. aeruginosa FRD1, S. aureus ATCC 25923, S. agalactiae ATCC 13813, S. pneumoniae ATCC 49619, methicillin-resistant S. aureus ATCC 43300, and methicillin-resistant S. aureus USA300 were cultured in Luria-Bertani (LB) medium, while K. pneumoniae CMCC46117 was cultured in tryptic soy broth (TSB) medium. Incubation was done at 37°C and 150 × g for 12 h. Bacteria were transferred to fresh MHB at a ratio of 1% (vol/vol) and incubated to reach a logarithmic growth phase. Then, 50 μL of a bacterial suspension at 4 × 10^6 CFU/mL was added to each well. […]

[2] = test system: Aeromonas hydrophila ATCC 7966; format: cell-based; details: ATCC 7966, 2 h
Experimental: as §1

[3] = test system: Pseudomonas aeruginosa PAO1; format: cell-based; details: PAO1, 2 h
Experimental: as §1

[4] = test system: Staphylococcus aureus ATCC 25923; format: cell-based; details: ATCC 25923, 2 h
Experimental: as §1

[5] = test system: Streptococcus pneumoniae ATCC 49619; format: cell-based; details: ATCC 49619, 2 h
Experimental: as §1

[6] = test system: Escherichia coli ATCC 25922; format: cell-based; details: ATCC 25922, 2 h
Experimental: as §1

[7] = test system: Streptococcus agalactiae ATCC 13813; format: cell-based; details: ATCC 13813, 2 h
Experimental: as §1

E. coli ATCC 25922 = experiment: SYTOX green membrane permeability assay; format: cell-based, Escherichia coli; details: E. coli ATCC 25922, 5 μM SYTOX green, read every 1 min
Experimental: The SYTOX green staining assay was performed to assess peptide-associated membrane damage ([47], [52]). E. coli ATCC 25922 and S. aureus ATCC 25923 cells in the mid-logarithmic phase were collected, washed thrice, and resuspended (5 × 10^7 CFU/mL) in buffer B (10 mM Tris-HCl, pH 7.4, at 25°C). The bacterial suspensions were mixed with 5 μM SYTOX green and incubated for 15 min at room temperature in the dark. Then, the mixtures were added to black, clear-bottom 96-well plates at a density of 100 μL/well. After peptide addition, SYTOX green uptake was monitored using an EnSpire multimode plate reader (PerkinElmer, Singapore) with an excitation wavelength of 485 nm and an emission wavelength of 520 nm. Each measurement interval was 1 min, totaling 30 to 60 times. Melittin was used as the positive control, while bovine serum albumin (BSA) was the negative control.

P. aeruginosa FRD1 = format: cell-based, Pseudomonas aeruginosa; details: FRD1, 2 h
Experimental: as §1

[8] = test system: Methicillin-resistant S. aureus USA300; format: cell-based, Staphylococcus aureus; details: USA300, 2 h
Experimental: as §1

[9] = test system: Methicillin-resistant S. aureus ATCC 43300; format: cell-based, Staphylococcus aureus; details: ATCC 43300, 2 h
Experimental: as §1

| MIC [1] [mg/L] | MIC [2] [mg/L] | MIC [3] [mg/L] | MIC [4] [mg/L] | MIC [5] [mg/L] | MIC [6] [mg/L] | MIC [7] [mg/L] | MIC (P. aeruginosa FRD1) [mg/L] | MIC [8] [mg/L] | MIC [9] [mg/L] | SMILES | SYTOX green fluorescence intensity (E. coli ATCC 25922) |
| --- | --- | --- | --- | --- | --- | --- | --- | --- | --- | --- | --- |
| >50.00 | >50.00 | 25.00 (≈ 9 µM) | 25.00 (≈ 9 µM) | 25.00 (≈ 9 µM) | 25.00 (≈ 9 µM) | 25.00 (≈ 9 µM) | 25.00 (≈ 9 µM) | 25.00 (≈ 9 µM) | 25.00 (≈ 9 µM) | CSCC[C@H](NC(=O)[C@H](CCCNC(=N)N)NC(=O)[C@H](CCCCN)NC(=O)[C@H](CCSC)NC(=O)[C@H](CC(C)C)NC(=O)[C@H](CCCCN)NC(=O)[C@H](CCC(N)=O)NC(=O)[C@H](CC(C)C)NC(=O)[C@H](Cc1ccccc1)NC(=O)[C@H](CCC(N)=O)NC(=O)[C@H](CCC(=O)O)NC(=O)[C@H](CCSC)NC(=O)[C@H](CCCCN)NC(=O)[C@@H]1CCCN1C(=O)[C@@H](NC(=O)[C@H](C)N)[C@@H](C)O)C(=O)N[C@@H](C)C(=O)N[C@@H](CCCNC(=N)N)C(=O)N[C@@H](CC(C)C)C(=O)N[C@@H](CCCCN)C(=O)N[C@@H](C)C(=O)N[C@@H](CO)C(=O)N[C@@H](C)C(=O)N[C@H](C(=O)O)C(C)C [drCCL27b-24] (H-ATPKMEQFLQKLMKRMARLKASAV-OH; N-terminus and C-terminus assumed) | fluorescence trends similar to the trends in E. coli cells treated with lcCCL28-25 |
| >50.00 | >50.00 | 50.00 (≈ 16.9 µM) | 25.00 (≈ 8.46 µM) | 25.00 (≈ 8.46 µM) | 50.00 (≈ 16.9 µM) | 25.00 (≈ 8.46 µM) | 25.00 (≈ 8.46 µM) | 25.00 (≈ 8.46 µM) | >50.00 | CC[C@H](C)[C@H](NC(=O)[C@H](C)NC(=O)[C@H](CCCCN)NC(=O)[C@H](CCSC)NC(=O)[C@H](CCCCN)NC(=O)[C@H](CC(C)C)NC(=O)[C@@H]1CCCN1C(=O)[C@H](C)N)C(=O)N[C@@H](CC(C)C)C(=O)N[C@@H](CCC(=O)O)C(=O)N[C@H](C(=O)N[C@H](C(=O)N[C@@H](Cc1c[nH]cn1)C(=O)N[C@@H](CCCNC(=N)N)C(=O)N[C@@H](CCCNC(=N)N)C(=O)N[C@@H](CCSC)C(=O)N[C@@H](CCCCN)C(=O)N[C@@H](CCC(N)=O)C(=O)N[C@@H](CC(N)=O)C(=O)N[C@@H](CCCCN)C(=O)N[C@@H](CCSC)C(=O)N[C@@H](CCCCN)C(=O)N[C@@H](C)C(=O)N[C@@H](C)C(=O)N[C@@H](Cc1ccccc1)C(=O)O)C(C)C)[C@@H](C)CC [smCCL27b-25] (H-APLKMKAILEIVHRRMKQNKMKAAF-OH; N-terminus and C-terminus assumed) | increased rapidly within 20 min |
| 25.00 (≈ 6.69 µM) | 25.00 (≈ 6.69 µM) | 25.00 (≈ 6.69 µM) | 12.50 (≈ 3.34 µM) | 25.00 (≈ 6.69 µM) | 12.50 (≈ 3.34 µM) | 12.50 (≈ 3.34 µM) | 25.00 (≈ 6.69 µM) | 12.5 (≈ 3.34 µM) | 12.50 (≈ 3.34 µM) | CC[C@H](C)[C@H](NC(=O)[C@H](CC(=O)O)NC(=O)[C@H](CCCCN)NC(=O)[C@H](Cc1ccccc1)NC(=O)[C@@H](NC(=O)[C@@H](NC(=O)[C@H](CCC(N)=O)NC(=O)[C@H](CC(=O)O)NC(=O)[C@@H](N)C(C)C)[C@@H](C)O)C(C)C)C(=O)N[C@@H](Cc1c[nH]c2ccccc12)C(=O)N[C@@H](Cc1c[nH]c2ccccc12)C(=O)N[C@@H](CCCNC(=N)N)C(=O)N[C@@H](CCSC)C(=O)N[C@@H](CCCCN)C(=O)N[C@@H](CCC(N)=O)C(=O)N[C@@H](Cc1c[nH]c2ccccc12)C(=O)N[C@@H](CCCCN)C(=O)N[C@@H](CCC(N)=O)C(=O)N[C@@H](CCCNC(=N)N)C(=O)N[C@H](C(=O)N[C@@H](CCCCN)C(=O)N[C@@H](CCCCN)C(=O)N[C@@H](CCCNC(=N)N)C(=O)N[C@@H](C)C(=O)N[C@@H](C)C(=O)N[C@@H](CCCCN)C(=O)N[C@@H](Cc1ccc(O)cc1)C(=O)N[C@@H](CC(N)=O)C(=O)N[C@H](C(=O)O)C(C)C)C(C)C [trCCL28-29] (H-VDQTVFKDIWWRMKQWKQRVKKRAAKYNV-OH; N-terminus and C-terminus assumed) | increased rapidly within 20 min |
